Source: ChEMBL document CHEMBL3046954, “Identification of important structural features of thiazolo[4,5-d]pyrimidines required for potent antifungal activity” (2011)
In brackets after ≈: the same amount, converted by molar mass.

Tests used:
Assay type in all cases: functional
Candida albicans = experiment: Antifungal activity against Candida albicans MTCC 227 by broth dilution method
Aspergillus niger = experiment: Antifungal activity against Aspergillus niger MTCC 282 by broth dilution method
Aspergillus clavatus = experiment: Antifungal activity against Aspergillus clavatus MTCC 1323 by broth dilution method

| Compound | MIC (Candida albicans) | MIC (Aspergillus niger) | MIC (Aspergillus clavatus) |
| --- | --- | --- | --- |
| OC(Cn1cncn1)(Cn1cncn1)c1ccc(F)cc1F [FLUCONAZOLE] | 0.5 µg/mL (≈ 1.63 µM) | 16 µg/mL (≈ 52.2 µM) | 16 µg/mL (≈ 52.2 µM) |
| COc1ccc(Nc2nc3c(sc(=S)n3-c3ccc(OC)cc3)c(=O)n2-c2ccc(OC)cc2)cc1 | 4 µg/mL (≈ 7.71 µM) | 0.5 µg/mL (≈ 0.964 µM) | 4 µg/mL (≈ 7.71 µM) |
| COc1ccc(-n2c(=S)sc3c(=O)n(-c4ccccc4OC)c(Nc4ccccc4OC)nc32)cc1 | 12.8 µg/mL (≈ 24.7 µM) | 0.4 µg/mL (≈ 0.771 µM) | 25.6 µg/mL (≈ 49.4 µM) |
| CCn1c(=S)sc2c(=O)n(-c3ccc(OC)cc3)c(Nc3ccc(OC)cc3)nc21 | 2 µg/mL (≈ 4.54 µM) | 0.8 µg/mL (≈ 1.82 µM) | 16 µg/mL (≈ 36.3 µM) |
| COc1ccc(-n2c(=S)sc3c(=O)n(-c4ccc(F)cc4)c(Nc4ccc(F)cc4)nc32)cc1 | 0.4 µg/mL (≈ 0.809 µM) | 0.5 µg/mL (≈ 1.01 µM) | 0.4 µg/mL (≈ 0.809 µM) |
| NYSTATIN | 8 µg/mL | 7 µg/mL | 7 µg/mL |
| O=c1c2sc(=S)n(-c3ccc(Cl)c(Cl)c3)c2nc(Nc2ccc(Br)cc2)n1-c1ccc(Br)cc1 | 0.8 µg/mL (≈ 1.22 µM) | 4 µg/mL (≈ 6.1 µM) | 16 µg/mL (≈ 24.4 µM) |
| COc1ccc(Nc2nc3c(sc(=S)n3-c3ccc(Cl)c(Cl)c3)c(=O)n2-c2ccc(OC)cc2)cc1 | 0.8 µg/mL (≈ 1.44 µM) | 4 µg/mL (≈ 7.18 µM) | 0.8 µg/mL (≈ 1.44 µM) |
| COc1ccc(Nc2nc3c(sc(=S)n3-c3ccccc3OC)c(=O)n2-c2ccc(OC)cc2)cc1 | 16 µg/mL (≈ 30.9 µM) | 4 µg/mL (≈ 7.71 µM) | 0.8 µg/mL (≈ 1.54 µM) |
| COc1ccc(Nc2nc3c(sc(=S)n3-c3ccc(Br)cc3)c(=O)n2-c2ccc(OC)cc2)cc1 | 4 µg/mL (≈ 7.05 µM) | 0.4 µg/mL (≈ 0.705 µM) | 12.8 µg/mL (≈ 22.6 µM) |
| O=c1c2sc(=S)n(-c3ccccc3)c2nc(Nc2ccccc2)n1-c1ccccc1 | 4 µg/mL (≈ 9.33 µM) | 25.6 µg/mL (≈ 59.7 µM) | 25.6 µg/mL (≈ 59.7 µM) |
| COc1ccccc1-n1c(=S)sc2c(=O)n(-c3c(C)cccc3C)c(Nc3c(C)cccc3C)nc21 | 4 µg/mL (≈ 7.77 µM) | 4 µg/mL (≈ 7.77 µM) | 4 µg/mL (≈ 7.77 µM) |
| COc1ccc(Nc2nc3c(sc(=S)n3-c3ccccc3)c(=O)n2-c2ccc(OC)cc2)cc1 | 0.5 µg/mL (≈ 1.02 µM) | 0.8 µg/mL (≈ 1.64 µM) | 0.2 µg/mL (≈ 0.409 µM) |
| COc1ccccc1Nc1nc2c(sc(=S)n2-c2ccccc2)c(=O)n1-c1ccccc1OC | 4 µg/mL (≈ 8.19 µM) | 12.8 µg/mL (≈ 26.2 µM) | 12.8 µg/mL (≈ 26.2 µM) |
| Cc1cccc(C)c1Nc1nc2c(sc(=S)n2-c2ccccc2)c(=O)n1-c1c(C)cccc1C | 4 µg/mL (≈ 8.25 µM) | 25.6 µg/mL (≈ 52.8 µM) | 4 µg/mL (≈ 8.25 µM) |
| COc1ccc(-n2c(=S)sc3c(=O)n(-c4ccc(Br)cc4)c(Nc4ccc(Br)cc4)nc32)cc1 | 0.8 µg/mL (≈ 1.3 µM) | 4 µg/mL (≈ 6.49 µM) | 0.2 µg/mL (≈ 0.324 µM) |
| COc1ccc(Nc2nc3c(sc(=S)n3-c3ccc(F)c(Cl)c3)c(=O)n2-c2ccc(OC)cc2)cc1 | 0.4 µg/mL (≈ 0.739 µM) | 4 µg/mL (≈ 7.39 µM) | 0.2 µg/mL (≈ 0.37 µM) |
| O=c1c2sc(=S)n(-c3ccc(F)c(Cl)c3)c2nc(Nc2ccc(Br)cc2)n1-c1ccc(Br)cc1 | 4 µg/mL (≈ 6.26 µM) | 4 µg/mL (≈ 6.26 µM) | 4 µg/mL (≈ 6.26 µM) |
| Cc1ccc(Nc2nc3c(sc(=S)n3-c3ccccc3)c(=O)n2-c2ccc(C)cc2)cc1 | 0.8 µg/mL (≈ 1.75 µM) | 12.8 µg/mL (≈ 28 µM) | 0.8 µg/mL (≈ 1.75 µM) |
